Results: PMC11062922 (Nature Chemical Biology, 2023)
Like-named read-outs stand apart in the source and are kept apart here.

Tests used:
ACAD11 = molecular target: T1, ACAD11 (Homo sapiens, UniProt Q709F0); assay: Kinobeads competition binding: ACAD11; details: target ACAD11
T1 construct: endogenous in cells
T1 sequence (Q709F0 1-780): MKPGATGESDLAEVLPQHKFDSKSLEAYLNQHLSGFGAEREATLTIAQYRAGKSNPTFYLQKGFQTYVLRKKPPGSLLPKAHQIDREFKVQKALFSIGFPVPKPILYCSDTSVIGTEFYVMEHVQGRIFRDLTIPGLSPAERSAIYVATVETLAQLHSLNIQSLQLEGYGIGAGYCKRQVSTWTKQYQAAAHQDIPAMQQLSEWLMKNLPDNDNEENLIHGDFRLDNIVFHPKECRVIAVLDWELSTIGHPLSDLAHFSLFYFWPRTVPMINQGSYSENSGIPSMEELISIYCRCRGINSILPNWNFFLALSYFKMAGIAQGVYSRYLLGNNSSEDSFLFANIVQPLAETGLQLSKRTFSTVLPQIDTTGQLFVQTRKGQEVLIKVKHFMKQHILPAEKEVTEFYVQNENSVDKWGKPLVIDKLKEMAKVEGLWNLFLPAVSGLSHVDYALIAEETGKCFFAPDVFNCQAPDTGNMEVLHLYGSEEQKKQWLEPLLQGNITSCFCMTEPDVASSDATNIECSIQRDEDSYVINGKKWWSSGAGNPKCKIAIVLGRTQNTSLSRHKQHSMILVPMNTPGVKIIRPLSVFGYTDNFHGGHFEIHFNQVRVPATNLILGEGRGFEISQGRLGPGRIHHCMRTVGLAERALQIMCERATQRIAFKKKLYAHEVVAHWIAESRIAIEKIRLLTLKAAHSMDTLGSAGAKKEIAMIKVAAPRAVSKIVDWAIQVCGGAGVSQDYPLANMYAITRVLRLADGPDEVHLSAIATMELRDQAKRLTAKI
Text: Supplement 41589_2023_1459_MOESM4_ESM.xlsx, sheet "CATDS matrix" | column: ACAD11

AKT2 = molecular target: T2, AKT2 (Homo sapiens, UniProt P31751); assay: Kinobeads competition binding: AKT2; details: target AKT2
T2 construct: endogenous in cells
T2 sequence (P31751 whole entry): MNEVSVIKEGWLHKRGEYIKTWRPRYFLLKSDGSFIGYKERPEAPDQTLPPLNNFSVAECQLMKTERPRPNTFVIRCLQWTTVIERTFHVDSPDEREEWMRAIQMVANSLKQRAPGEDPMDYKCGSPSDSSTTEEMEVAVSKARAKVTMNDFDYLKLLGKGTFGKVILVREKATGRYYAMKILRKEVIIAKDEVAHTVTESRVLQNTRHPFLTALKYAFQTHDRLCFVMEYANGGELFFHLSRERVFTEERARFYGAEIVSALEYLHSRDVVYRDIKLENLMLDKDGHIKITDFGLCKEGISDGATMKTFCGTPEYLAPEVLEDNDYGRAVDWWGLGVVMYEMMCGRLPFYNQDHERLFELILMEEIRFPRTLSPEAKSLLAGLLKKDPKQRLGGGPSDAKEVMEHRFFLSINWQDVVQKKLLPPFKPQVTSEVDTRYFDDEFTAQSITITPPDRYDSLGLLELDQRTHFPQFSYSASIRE

CDK16 = assay: Kinobeads competition binding: CDK16; design: species or system human; details: target CDK16
CDK2 = molecular target: T3, CDK2 (Homo sapiens, UniProt P24941); assay: Kinobeads competition binding: CDK2; details: target CDK2
T3 construct: endogenous in cells

CSK = molecular target: T4, CSK (Homo sapiens, UniProt P41240); assay: Kinobeads competition binding: CSK; details: target CSK
T4 construct: endogenous in cells
T4 sequence (P41240 whole entry): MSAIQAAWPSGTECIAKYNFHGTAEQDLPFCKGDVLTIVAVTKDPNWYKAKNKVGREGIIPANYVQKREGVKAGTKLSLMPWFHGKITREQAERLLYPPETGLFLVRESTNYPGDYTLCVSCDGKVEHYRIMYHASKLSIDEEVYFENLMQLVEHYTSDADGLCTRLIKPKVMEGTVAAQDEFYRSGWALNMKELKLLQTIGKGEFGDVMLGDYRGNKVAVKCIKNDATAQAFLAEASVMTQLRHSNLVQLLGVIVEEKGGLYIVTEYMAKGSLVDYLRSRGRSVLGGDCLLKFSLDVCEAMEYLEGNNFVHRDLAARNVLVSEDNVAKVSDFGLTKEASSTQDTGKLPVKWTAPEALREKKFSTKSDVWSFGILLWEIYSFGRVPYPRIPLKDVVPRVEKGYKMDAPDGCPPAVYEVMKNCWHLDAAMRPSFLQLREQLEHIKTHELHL

DAPK3 = molecular target: T5, DAPK3 (Homo sapiens, UniProt O43293); assay: Kinobeads competition binding: DAPK3; details: target DAPK3;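 further: share of all-target engagement taken by this protein at its own Kdapp concentration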
T5 construct: endogenous in cells
T5 sequence (O43293 whole entry): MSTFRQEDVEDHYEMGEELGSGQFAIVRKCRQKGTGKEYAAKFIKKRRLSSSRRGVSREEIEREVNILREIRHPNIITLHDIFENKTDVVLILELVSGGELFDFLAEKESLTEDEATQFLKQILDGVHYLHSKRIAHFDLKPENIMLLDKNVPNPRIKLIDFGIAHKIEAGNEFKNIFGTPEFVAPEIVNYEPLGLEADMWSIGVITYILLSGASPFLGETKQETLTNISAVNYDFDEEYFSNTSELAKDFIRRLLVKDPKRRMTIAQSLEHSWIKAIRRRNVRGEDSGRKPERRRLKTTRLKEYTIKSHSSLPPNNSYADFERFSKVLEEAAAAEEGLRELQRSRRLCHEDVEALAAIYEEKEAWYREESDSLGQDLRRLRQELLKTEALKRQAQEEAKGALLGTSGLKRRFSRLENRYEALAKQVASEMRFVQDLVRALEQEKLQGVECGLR

ICK = assay: Kinobeads competition binding: ICK; design: species or system human; details: target ICK
LIMK2 = assay: Kinobeads competition binding: LIMK2; design: species or system human; details: target LIMK2
MAP3K4 = assay: Kinobeads competition binding: MAP3K4; design: species or system human; details: target MAP3K4;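 further: target engagement share of this target among all targets at its Kdapp concentration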
MAPK14 = molecular target: T6, MAPK14 (Homo sapiens, UniProt Q16539); assay: Kinobeads competition binding: MAPK14; details: target MAPK14
T6 construct: endogenous in cells
T6 sequence (Q16539 whole entry): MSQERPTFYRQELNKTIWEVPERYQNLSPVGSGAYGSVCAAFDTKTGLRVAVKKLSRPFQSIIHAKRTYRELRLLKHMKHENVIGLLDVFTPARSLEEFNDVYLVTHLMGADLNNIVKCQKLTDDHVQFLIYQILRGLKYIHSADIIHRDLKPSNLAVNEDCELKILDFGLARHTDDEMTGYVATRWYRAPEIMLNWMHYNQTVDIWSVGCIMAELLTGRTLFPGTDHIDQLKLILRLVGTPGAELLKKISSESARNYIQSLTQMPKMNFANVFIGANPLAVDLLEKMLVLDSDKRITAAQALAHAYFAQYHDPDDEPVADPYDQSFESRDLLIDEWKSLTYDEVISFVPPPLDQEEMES

MELK = assay: Kinobeads competition binding: MELK; design: species or system human; details: target MELK;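 further: share of total target engagement due to this protein at one drug concentration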
OPA1 = assay: Kinobeads competition binding: OPA1; design: species or system human; details: target OPA1;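 further: target engagement share of this target among all targets at its Kdapp concentration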
PKN3 = PKN3 (Homo sapiens, UniProt Q6P5Z2); assay: Kinobeads two-dose competition binding: PKN3; design: endogenous in cells; details: for CATDSPKN3: selectivity score from Kinobeads two-dose data
Chain of PKN3 (Q6P5Z2 whole entry): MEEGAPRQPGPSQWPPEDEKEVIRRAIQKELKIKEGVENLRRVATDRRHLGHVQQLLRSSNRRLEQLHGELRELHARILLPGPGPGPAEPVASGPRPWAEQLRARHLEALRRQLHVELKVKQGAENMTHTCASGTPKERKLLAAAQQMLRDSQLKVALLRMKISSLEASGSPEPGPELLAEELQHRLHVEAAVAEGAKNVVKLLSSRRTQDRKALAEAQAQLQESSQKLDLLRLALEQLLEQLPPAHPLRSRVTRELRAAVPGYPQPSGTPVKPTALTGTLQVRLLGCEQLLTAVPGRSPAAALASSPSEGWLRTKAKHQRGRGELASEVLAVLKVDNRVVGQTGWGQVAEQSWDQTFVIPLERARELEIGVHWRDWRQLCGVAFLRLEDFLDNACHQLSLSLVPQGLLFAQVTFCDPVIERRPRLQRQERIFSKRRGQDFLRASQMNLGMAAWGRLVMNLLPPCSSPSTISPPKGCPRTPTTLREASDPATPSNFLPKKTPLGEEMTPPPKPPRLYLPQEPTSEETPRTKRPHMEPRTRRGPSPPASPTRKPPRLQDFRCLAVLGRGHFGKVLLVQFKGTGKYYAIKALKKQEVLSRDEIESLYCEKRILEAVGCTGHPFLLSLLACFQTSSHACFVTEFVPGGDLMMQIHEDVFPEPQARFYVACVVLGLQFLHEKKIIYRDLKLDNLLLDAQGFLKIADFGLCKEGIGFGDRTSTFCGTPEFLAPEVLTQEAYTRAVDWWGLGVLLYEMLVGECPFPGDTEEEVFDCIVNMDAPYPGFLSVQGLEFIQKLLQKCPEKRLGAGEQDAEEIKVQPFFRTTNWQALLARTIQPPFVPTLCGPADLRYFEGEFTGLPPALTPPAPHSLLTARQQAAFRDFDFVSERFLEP
Text: Briefly, Kinobeads comprise seven broad-spectrum small molecule kinase inhibitors immobilized on Sepharose beads. […]. Compounds of interest are set to compete for target protein binding with Kinobeads in the lysate and the amount of a given protein bound to Kinobeads in the presence of a compound can be quantified relative to a dimethylsulfoxide (DMSO) vehicle control by label-free mass spectrometry. This assay measures the physical interaction of a compound with thousands of endogenous proteins in parallel and, when systematically increasing the concentration of competitor, enables the calculation of an apparent interaction constant ( Kdapp ) for each compound and protein.
Kinobeads pulldown experiments were performed as described previously[13],[14],[17] with minor modification. […] The protein concentration was adjusted to 5 mg ml^−1. Kinase inhibitors were spiked into 0.5 ml of cell lysate at final concentrations of 100 and 1,000 nM (or DMSO, 0.3, 1, 3, 10, 30, 100, 300 and 1,000 nM for full dose experiments). […] Lysates were incubated for 45 min at 4 °C. Subsequently, lysates were incubated with Kinobeads ε (17.5 µl of settled beads) for 30 min at 4 °C. To assess the degree of protein depletion from the lysates by Kinobeads, the flow through of the DMSO control was recovered for a pulldown of pulldown experiment where the lysate was incubated a second time with fresh Kinobeads. Beads were washed in three steps with buffer containing 0.4%, 0.2% and no IGEPAL. Bound proteins were reduced with 50 mM DTT in 8 M Urea, 40 mM Tris-HCl pH 7.4 for 30 min at room temperature. After alkylation with 55 mM chloroacetamide, the urea concentration was reduced to 1–2 M and proteins were digested with trypsin. Acidified peptides were desalted and concentrated using SepPak tC18 µEluation plates (Waters). Samples were frozen, dried by vacuum centrifugation and stored at −20 °C.
Each kinase inhibitor was processed together with all DMSO controls of the same plate. Additionally, each search was supplemented with five high quality DMSO controls for consistent peptide identification and protein grouping. The resultant file (proteinGroups.txt) was used for subsequent filtering, normalization, data visualization and target annotation that was automatically performed by a data processing pipeline built in house that used R (including the ‘drc’ and ‘heatmap’ packages). First, reverse hits, potential contaminants and not quantified proteins in the DMSO control samples were discarded. Protein raw and label-free quantification intensities were normalized to the median DMSO control intensity to obtain relative residual binding intensities for each protein group at every inhibitor concentration and standard deviations of the DMSO control intensity were calculated. IC50 values were estimated based on the following equation IC50=I×100−inhibition/inhibition where [I] is the inhibitor concentration that was used for IC50 calculation and ‘inhibition’ the relative residual binding intensity. […]. Estimated Kdapp values were then calculated by multiplying the estimated IC50 values with a protein-dependent correction factor that was limited to a maximum value of one. The correction factor accounts for the depletion of a target protein from the lysate by Kinobeads. The depletion can be measured by the ratio of the amount of protein captured in two consecutive pulldowns of the same DMSO control lysate. In this study, correction factors were determined in separate experiments using the same lysate mixture and the same bead batch. Correction factors were set to the median of all correction factors. Targets of kinase inhibitors were annotated using the previously published random forest classifier. A training data set was annotated manually. […]

[1] = Kinobeads two-dose, read-out: Kdapp PKN3

Structure (SMILES) | CATDS (ACAD11) | CATDS (AKT2) | CATDS (CDK16) | CATDS (CDK2) | CATDS (CSK) | CATDS (DAPK3) | CATDS (ICK) | CATDS (LIMK2) | CATDS (MAP3K4) | CATDS (MAPK14) | CATDS (MELK) | CATDS (OPA1) | potency estimated from few doses (PKN3; [1]) | CATDSPKN3 (PKN3) | potency estimated from few doses (PKN3; read-out: Lestaurtinib Drugmatrix value, Gene Name PKN3, one column per experiment number and replicate (R1-R3)) | potency estimated from few doses (PKN3; read-out: Kdapp PKN3)
Nc1ncnc2[nH]c(-c3ccccc3)nc12 [AH5015_KCGS] | 0 | 0 | 0 | 0 | 0 | 0 | 0 | 0 | 0 | 0 | 0 | 0 | – | – | – | –
CCN1CCN(Cc2ccc(Nc3ncc(F)c(-c4cc(F)c5nc(C)n(C(C)C)c5c4)n3)nc2)CC1 [Abemaciclib] | 0 | 0 | 0.02651 | – | 0 | 0 | 0 | 0 | 0 | 0 | 0 | 0 | – | – | – | –
CN(C)C/C=C/C(=O)Nc1cc2c(Nc3ccc(F)c(Cl)c3)ncnc2cc1O[C@H]1CCOC1 [Afatinib] | 0 | – | – | 0 | – | – | – | – | – | – | – | 0 | – | – | – | –
CCc1cc2c(cc1N1CCC(N3CCOCC3)CC1)C(C)(C)c1[nH]c3cc(C#N)ccc3c1C2=O [Alectinib] | 0 | 0 | 0 | 0 | 0 | 0 | 0 | 0 | 0 | 0 | 0 | 0 | – | – | – | –
N#CC1(c2ccc(NC(=O)c3cccnc3NCc3ccncc3)cc2)CCCC1 [Apatinib] | 0 | 0 | 0 | 0 | 0 | 0 | 0 | 0 | 0 | 0 | 0 | 0 | – | – | – | –
CCn1c(-c2nonc2N)nc2c(C#CC(C)(C)O)nc(OCCN)cc21 [GSK902056A] | – | – | – | – | – | – | – | – | – | – | – | – | 1 nM | 0.93 | – | –
CCn1c(-c2nonc2N)nc2c(C#CC(C)(C)O)nc(OCCNC)cc21 [GSK949675A] | – | – | – | – | – | – | – | – | – | – | – | – | 2.5 nM | 0.86 | – | –
C[C@]12O[C@H](C[C@]1(O)CO)n1c3ccccc3c3c4c(c5c6ccccc6n2c5c31)CNC4=O [Lestaurtinib] | – | – | – | – | – | – | – | – | – | – | – | – | – | – | 755 nM | –
NCc1ccc(-c2nc(-c3ccncc3)c(-c3ccc(Cl)c(O)c3)[nH]2)cc1 [SB-476429-A] | – | – | – | – | – | – | – | – | – | – | – | – | – | 0.21 | – | 36 nM
